Reference: PubChem BioAssay AID1259407 (Chemical Carcinogenesis Research Information System (CCRIS), 2018)
Active and inactive are the calls of the source. The rule behind the calls is not given here.

Tested on: CCRIS mutagenicity, Ames/micronucleus/aberration tests
Experiment: CCRIS mutagenicity studies
Conditions: Test System: AMES SALMONELLA TYPHIMURIUM
[1] = Strain/Indicator: TA97, Metabolic Activation: NONE, Method: PREINCUBATION
[2] = Strain/Indicator: TA98, Metabolic Activation: HAMSTER, LIVER, S-9, AROCLOR 1254 (10%), Method: PREINCUBATION
[3] = Strain/Indicator: TA98, Metabolic Activation: NONE, Method: PREINCUBATION
[4] = Strain/Indicator: TA98, Metabolic Activation: RAT, LIVER, S-9, AROCLOR 1254 (10%), Method: PREINCUBATION
[5] = Strain/Indicator: TA100, Metabolic Activation: HAMSTER, LIVER, S-9, AROCLOR 1254 (10%), Method: PREINCUBATION
[6] = Strain/Indicator: TA100, Metabolic Activation: NONE, Method: PREINCUBATION
[7] = Strain/Indicator: TA1535, Metabolic Activation: HAMSTER, LIVER, S-9, AROCLOR 1254 (10%), Method: PREINCUBATION
[8] = Strain/Indicator: TA1535, Metabolic Activation: NONE, Method: PREINCUBATION
[9] = Strain/Indicator: TA1535, Metabolic Activation: RAT, LIVER, S-9, AROCLOR 1254 (10%), Method: PREINCUBATION
[10] = Strain/Indicator: TA100, Metabolic Activation: RAT, LIVER, S-9, AROCLOR 1254, Method: STANDARD PLATE
[11] = Strain/Indicator: TA98, Metabolic Activation: NONE, Method: STANDARD PLATE

**Q.** What does the source list for `O=C1c2ccccc2C(=O)C1c1ccc2ccccc2n1`?
**A.** mutagenic call (Strain/Indicator: TA97, Metabolic Activation: HAMSTER, LIVER, S-9, AROCLOR 1254 (10%), Method: PREINCUBATION): inactive; negative; mutagenic call (Strain/Indicator: TA97, Metabolic Activation: HAMSTER, LIVER, S-9, AROCLOR 1254 (30%), Method: PREINCUBATION): inactive; negative; mutagenic call [1]: inactive; negative; mutagenic call (Strain/Indicator: TA97, Metabolic Activation: RAT, LIVER, S-9, AROCLOR 1254 (10%), Method: PREINCUBATION): inactive; negative; mutagenic call (Strain/Indicator: TA97, Metabolic Activation: RAT, LIVER, S-9, AROCLOR 1254 (30%), Method: PREINCUBATION): inactive; negative; mutagenic call (Strain/Indicator: TA98, Metabolic Activation: HAMSTER, LIVER, S-9, AROCLOR 1254 (5%), Method: PREINCUBATION): inactive; negative; mutagenic call [2]: inactive; negative; mutagenic call (Strain/Indicator: TA98, Metabolic Activation: HAMSTER, LIVER, S-9, AROCLOR 1254 (30%), Method: PREINCUBATION): inactive; negative; mutagenic call [3]: inactive; negative; mutagenic call (Strain/Indicator: TA98, Metabolic Activation: RAT, LIVER, S-9, AROCLOR 1254 (5%), Method: PREINCUBATION): inactive; negative; mutagenic call [4]: inactive; negative; mutagenic call (Strain/Indicator: TA98, Metabolic Activation: RAT, LIVER, S-9, AROCLOR 1254 (30%), Method: PREINCUBATION): active; positive; mutagenic call [5]: inactive; negative; mutagenic call (Strain/Indicator: TA100, Metabolic Activation: HAMSTER, LIVER, S-9, AROCLOR 1254 (30%), Method: PREINCUBATION): active; positive; mutagenic call [6]: inactive; negative; mutagenic call (Strain/Indicator: TA100, Metabolic Activation: RAT, LIVER, S-9, AROCLOR 1254 (5 OR 10%), Method: PREINCUBATION): inactive; negative; mutagenic call (Strain/Indicator: TA100, Metabolic Activation: RAT, LIVER, S-9, AROCLOR 1254 (30%), Method: PREINCUBATION): active; positive; mutagenic call [7]: inactive; negative; mutagenic call (Strain/Indicator: TA1535, Metabolic Activation: HAMSTER, LIVER, S-9, AROCLOR 1254 (30%), Method: PREINCUBATION): inactive; negative; mutagenic call [8]: inactive; negative; mutagenic call [9]: inactive; negative; mutagenic call (Strain/Indicator: TA1535, Metabolic Activation: RAT, LIVER, S-9, AROCLOR 1254 (30%), Method: PREINCUBATION): inactive; negative; mutagenic call (Strain/Indicator: TA1537 R+, Metabolic Activation: NONE, Method: STANDARD PLATE): active; positive; mutagenic call (Strain/Indicator: TA1537 R+, Metabolic Activation: RAT, LIVER, S-9, AROCLOR 1254, Method: STANDARD PLATE): active; positive; mutagenic call (Strain/Indicator: TA1538, Metabolic Activation: HAMSTER, LIVER, S-9, AROCLOR 1254 (30%), Method: PREINCUBATION): active; positive; mutagenic call (Strain/Indicator: TA1538, Metabolic Activation: RAT, LIVER, S-9, AROCLOR 1254 (30%), Method: PREINCUBATION): active; positive

**Q.** Which mutagenic call (Strain/Indicator: TA98, Method: STANDARD PLATE) does the source give for `Cc1cc(C)c2cc(C)c(N)cc2n1` here?
**A.** active; positive

**Q.** Which mutagenic call [10] does the source give for `Fc1ccc2c3c(cccc13)-c1cc3ccccc3cc1-2` here?
**A.** active; positive

**Q.** What does the source list for `O=C(O)C1Cc2c([nH]c3ccccc23)C(CO)N1` (centres undefined)?
**A.** mutagenic call (Strain/Indicator: TA97, Metabolic Activation: NONE, Method: STANDARD PLATE): inactive; negative; mutagenic call (Strain/Indicator: TA97, Metabolic Activation: RAT, LIVER, S-9, AROCLOR 1254, Method: STANDARD PLATE): inactive; negative; mutagenic call [11]: inactive; negative; mutagenic call (Strain/Indicator: TA98, Metabolic Activation: RAT, LIVER, S-9, AROCLOR 1254, Method: STANDARD PLATE): inactive; negative; mutagenic call (Strain/Indicator: TA100, Metabolic Activation: NONE, Method: STANDARD PLATE): inactive; negative; mutagenic call [10]: inactive; negative

**Q.** Which mutagenic call [11] does the source give for `OCc1c2ccccc2cc2c1ccc1ccccc12` here?
**A.** active; positive

**Q.** What about the mutagenic call (Strain/Indicator: TA98, Metabolic Activation: RAT, LIVER, S-9, 3'-PHOSPHOADENOSINE 5'-PHOSPHOSULFATE GENERATING SYSTEM, Method: PREINCUBATION) of the same molecule?
**A.** active; positive

**Q.** And the mutagenic call (Strain/Indicator: TA98, Metabolic Activation: RAT, LIVER, S-9, NADPH GENERATING SYSTEM, Method: PREINCUBATION)?
**A.** active; positive

**Q.** And the mutagenic call (Strain/Indicator: TA98, Metabolic Activation: RAT, LIVER, S-105, 3'-PHOSPHOADENOSINE 5'-PHOSPHOSULFATE GENERATING SYSTEM, Method: PREINCUBATION)?
**A.** active; positive

**Q.** How did the mutagenic call [1] turn out when `CCCC(=O)OCC` was run?
**A.** inactive; negative

**Q.** And the mutagenic call (Strain/Indicator: TA97, Metabolic Activation: RAT, LIVER, S-9, AROCLOR 1254, Method: PREINCUBATION)?
**A.** inactive; negative

**Q.** And the mutagenic call (Strain/Indicator: TA102, Metabolic Activation: NONE, Method: PREINCUBATION)?
**A.** inactive; negative

**Q.** What about the mutagenic call (Strain/Indicator: TA102, Metabolic Activation: RAT, LIVER, S-9, AROCLOR 1254, Method: PREINCUBATION) of the same molecule?
**A.** inactive; negative

**Q.** How did the mutagenic call [2] turn out when `CCCCCCCCC/C=C/CC1CC(=O)OC1=O` (centres undefined) was run?
**A.** inactive; negative

**Q.** What about the mutagenic call [3] of the same molecule?
**A.** inactive; negative

**Q.** And the mutagenic call [4]?
**A.** inactive; negative

**Q.** What about the mutagenic call [5] of the same molecule?
**A.** inactive; negative

**Q.** What about the mutagenic call [6] of the same molecule?
**A.** inactive; negative

**Q.** What about the mutagenic call (Strain/Indicator: TA100, Metabolic Activation: RAT, LIVER, S-9, AROCLOR 1254 (10%), Method: PREINCUBATION) of the same molecule?
**A.** inactive; negative

**Q.** And the mutagenic call [7]?
**A.** inactive; negative

**Q.** What about the mutagenic call [8] of the same molecule?
**A.** inactive; negative

**Q.** What about the mutagenic call [9] of the same molecule?
**A.** inactive; negative

**Q.** What about the mutagenic call (Strain/Indicator: TA1537, Metabolic Activation: HAMSTER, LIVER, S-9, AROCLOR 1254 (10%), Method: PREINCUBATION) of the same molecule?
**A.** inactive; negative

**Q.** What about the mutagenic call (Strain/Indicator: TA1537, Metabolic Activation: NONE, Method: PREINCUBATION) of the same molecule?
**A.** inactive; negative

**Q.** What about the mutagenic call (Strain/Indicator: TA1537, Metabolic Activation: RAT, LIVER, S-9, AROCLOR 1254 (10%), Method: PREINCUBATION) of the same molecule?
**A.** inactive; negative
